What was measured:
Format in all cases: physicochemical
[1] = Solid-state chemical stability (long term and accelerated storage), total impurities by HPLC
Protocol: The chemical stability of PF-06873600 anhydrous free base (Form 1) was investigated at long term storage conditions (25° C./60% RH) for an extended time period and under accelerated stability conditions (40° C./75% RH) for a shorter period. Stability testing was conducted at 25° C./60% RH for 24 months (long term conditions) and at 40° C./75% RH for 6 months (accelerated conditions) and evaluated for appearance and purity by HPLC.
(§1) Stability samples of drug substance were packaged in double low-density polyethylene (LDPE) bags and desiccant within high-density polyethylene (HDPE) drum. Photostability samples were stored in a quartz Petri dish with a quartz lid.

[2] = Photostability study under ICH conditions, light source option 2; conditions: for Total impurities: ICH photostability
From the text: A photostability study was run under ICH conditions using light source option 2 ICH conditions.
as §1

[3] = Water sorption and desorption, automated vapor sorption analyzer
Protocol: Water sorption and desorption studies were conducted on automated vapor sorption analyzer (TA instruments Q5000 SA). The microbalance was calibrated using a 100 mg standard weight. The relative humidity sensor was calibrated at 5.0, 11.3, 32.8, 52.8, 75.3, and 84.3% RH (25° C.) using saturated salt solutions. Approximately 30 mg of the powder sample was placed in the quartz sample holder and dried at ≤3% relative humidity (RH) at 25° C. The attainment of equilibrium was assumed when the weight change of the sample was <0.001 wt % in 5 min or by a maximum equilibration time of 120 minutes. […] The attainment of equilibrium was again assumed when the weight change of the sample was <0.001 wt % in 5 min or by a maximum equilibration time of 120 minutes. The weight gain at each of the % RH steps is based on the weight after the initial drying step. The data were analyzed using Universal Analysis software V4.5A.

SMILES: C[C@@]1(O)CCC[C@H]1n1c(=O)c(C(F)F)cc2cnc(NC3CCN(S(C)(=O)=O)CC3)nc21 [PF-06873600 free base (Form 1), 6-(difluoromethyl)-8-[(1R,2R)-2-hydroxy-2-methylcyclopentyl]-2-{[1-(methylsulfonyl)piperidin-4-yl]amino}-pyrido[2,3-d]pyrimidin-7(8H)-one]
- Total impurities ([1]; 25° C./60% RH, 3 mos.): 0.49%
- Total impurities ([1]; 25° C./60% RH, 6 mos.): 0.48%
- Total impurities ([1]; 25° C./60% RH, 12 mos.): 0.51%
- Total impurities ([1]; 25° C./60% RH, 24 mos.): 0.59%
- Total impurities ([1]; 25° C./60% RH, Initial): 0.5%
- Total impurities ([1]; 40° C./75% RH, 3 mos.): 0.47%
- Total impurities ([1]; 40° C./75% RH, 6 mos.): 0.47%
- Total impurities ([1]; 40° C./75% RH, Initial): 0.5%
- Total impurities ([2]; light source option 2, 8 days): 0.64%
- Total impurities ([2]; light source option 2, Initial): 0.58%
- Appearance after photostability exposure ([2]; samples directly exposed to UV/Fluorescent conditions): change in appearance from an off-white powder to a pale-colored powder
- Water Content, Desorption ([3]; 25° C., 10% RH): −0.12 % w/w
- Water Content, Sorption ([3]; 25° C., 10% RH): 0.00 % w/w
- Water Content, Desorption ([3]; 25° C., 20% RH): −0.1 % w/w
- Water Content, Sorption ([3]; 25° C., 20% RH): 0.02 % w/w
- Water Content, Desorption ([3]; 25° C., 30% RH): −0.07 % w/w
- Water Content, Sorption ([3]; 25° C., 30% RH): 0.04 % w/w
- Water Content, Desorption ([3]; 25° C., 40% RH): −0.06 % w/w
- Water Content, Sorption ([3]; 25° C., 40% RH): 0.06 % w/w
- Water Content, Desorption ([3]; 25° C., 50% RH): −0.04 % w/w
- Water Content, Sorption ([3]; 25° C., 50% RH): 0.07 % w/w
- Water Content, Desorption ([3]; 25° C., 60% RH): −0.03 % w/w
- Water Content, Sorption ([3]; 25° C., 60% RH): 0.07 % w/w
- Water Content, Desorption ([3]; 25° C., 70% RH): −0.01 % w/w
- Water Content, Sorption ([3]; 25° C., 70% RH): 0.08 % w/w
- Water Content, Desorption ([3]; 25° C., 80% RH): 0.02 % w/w
- Water Content, Sorption ([3]; 25° C., 80% RH): 0.08 % w/w
- Water Content, Desorption ([3]; 25° C., 90% RH): 0.04 % w/w
- Water Content, Sorption ([3]; 25° C., 90% RH): 0.04 % w/w
- Change in solid form ([3]; after the water sorption study): no change in solid form
- Weight gain ([3]; up to 90% RH): no significant weight gain
- Hygroscopicity ([3]; water sorption study, 25° C.): not hygroscopic

— patent publication US20220127262A1, “CRYSTALLINE FORM OF A CDK INHIBITOR” (Pfizer Inc., priority 2019, published 2022)
